Assay results published in ChEMBL document CHEMBL3804765, “One-pot synthesis and sigma receptor binding studies of novel spirocyclic-2,6-diketopiperazine derivatives” (Bioorg Med Chem Lett, 2016).

Legend:
[1] = biological target: Sigma non-opioid intracellular receptor 1 (Cavia porcellus, UniProt Q60492); test: Displacement of [3H](+)-pentazocine from Sigma1 receptor in Dunkin Hartley guinea pig brain membrane after 120 mins by liquid scintillation counting analysis
[2] = Displacement of [3H]-DTG from Sigma2 receptor in Sprague-Dawley rat liver membrane after 150 mins by liquid scintillation counting analysis in presence of sigma1 blocker (+)-pentazocine; assay type: cell membranes
[3] = Displacement of [3H]-DTG from Sigma2 receptor in rat brain by liquid scintillation counting analysis in presence of sigma1 blocker (+)-pentazocine; assay type: tissue-based
[4] = Displacement of [3H]-DTG from Sigma2 receptor in Sprague-Dawley rat liver membrane after 150 mins by liquid scintillation counting analysis in presence of sigma1 blocker AC915; assay type: cell membranes

Sigma non-opioid intracellular receptor 1, sequence (Q60492 whole entry): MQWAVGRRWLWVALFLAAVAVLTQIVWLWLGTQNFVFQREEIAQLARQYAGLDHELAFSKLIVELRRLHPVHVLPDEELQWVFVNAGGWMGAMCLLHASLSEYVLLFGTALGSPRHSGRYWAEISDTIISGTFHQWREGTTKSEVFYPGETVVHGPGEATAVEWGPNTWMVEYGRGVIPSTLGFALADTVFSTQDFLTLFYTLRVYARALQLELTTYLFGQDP

SMILES | Ki [1] [nM] | Ki [2] [nM] | Ki [3] [µM] | Ki [4] [nM]
COc1ccc(C(=O)N2CC(=O)N(C3CCCCC3)C(=O)C23CCCC3)cc1 | 429 | 98 | – | –
O=C1CN(C(=O)c2ccccc2)C2(CCN(Cc3ccccc3)CC2)C(=O)N1C1CCCCC1 | 7.2 | 248 | – | –
Cc1ccc(C(=O)N2CC(=O)N(C3CCCCC3)C(=O)C23CCN(Cc2ccccc2)CC3)cc1 | 11.1 | 134 | – | –
Cc1ccc(C(=O)N2CC(=O)N(C3CCCCC3)C(=O)C23CCCC3)cc1 | 189 | 134 | – | –
CC(C)(C)C1CCC2(CC1)C(=O)N(C1CCCCC1)C(=O)CN2C(=O)c1ccccc1 (stereo unspecified) | 7900 | > 10000 | – | –
COc1ccc(C(=O)N2CC(=O)N(C3CCCCC3)C(=O)C23CCN(Cc2ccccc2)CC3)cc1 | 5.9 | 563 | – | –
Cc1ccc(C(=O)N2CC(=O)N(C3CCCCC3)C(=O)C23CCCCC3)cc1 | 399 | 2190 | – | –
O=C1CN(C(=O)c2ccccc2)C2(CCCC2)C(=O)N1C1CCCCC1 | 79.8 | 118 | – | –
c1ccc(CN2CCC3(CC2)N=Nc2ccccc2N3)cc1 | – | – | 4.22 | –
COc1ccc(C(=O)N2CC(=O)N(C3CCCCC3)C(=O)C23CCC(C(C)(C)C)CC3)cc1 (stereo unspecified) | 9360 | > 10000 | – | –
COc1ccc(C(=O)N2CC(=O)N(C3CCCCC3)C(=O)C23CCCCC3)cc1 | 1370 | 5380 | – | –
COc1ccc(C(=O)N2CC(=O)N(C3CCCCC3)C(=O)C23CCCCC3)c(OC)c1 | 968 | 3170 | – | –
CC(C)=CCN1CC[C@]2(C)c3cc(O)ccc3C[C@H]1[C@H]2C [(+)-PENTAZOCINE] | – | – | – | 1820
Cc1ccccc1NC(=N)Nc1ccccc1C [DITOLYLGUANIDINE] | – | 59.1 | – | –
O=C(CCCN1CCC(O)(c2ccc(Cl)cc2)CC1)c1ccc(F)cc1 [HALOPERIDOL] | – | 54.5 | – | –
